The mortality is the share of the test organisms that died.

This series deals with mites. The experiment in a line: Mite killing efficacy test with an in vitro model. To be noted: 30 µM drug solution. The method, then: Mite collection: Live mites were gently picked up from a cage box with cotton swabs or small tweezers, 17-26 live mites per group.
Drug treatment and detection method: 100 µL of a drug solution with a different concentration (drug solution prepared by 3% DMSO solution + 97% water and having a target final concentration of 30 µM) was aspirated with a pipette and added to a 24-well plate for each group, ensuring full contact between the drug and the mites. The mites were separately incubated at normal temperature for 5 min, transferred from each plate to another dry 24-well plate with the top sealed, and air-dried for about 1 h. Mite actions were observed, and the number of dead mites/the total number of mites was recorded. Then, the 24-well plate containing the mites was cultured at room temperature and relatively high humidity. The number of dead mites/the total number of mites was counted separately after 1 h, 2 h, 4 h, 6 h, 8 h, 22 h, and 24 h (time points after drug addition), and mite mortality rates were calculated. The project ended 24 h after drug addition.
At a corresponding time point, a mite mortality rate greater than or equal to 90% is denoted as "+++", a mite mortality rate less than 90% and greater than or equal to 50% is denoted as "++", and a mite mortality rate less than 50% is denoted as "+".

[1] abbreviates: 4 h after drug addition, read-out: Mite Mortality Rate 4 h.
[2] abbreviates: 24 h after drug addition, read-out: Mite Mortality Rate 24 h.

The structures appear in SMILES notation. Read-outs that look alike come from different tables or passages of the source. A value given as a limit tells only on which side of the number the result lay.

As for `Cc1cc(C2=NOC(c3cc(Cl)cc(Cl)c3)(C(F)(F)F)C2)c(F)cc1C(=O)NCC(=O)NCC(F)(F)F` (centres unmarked) [Example 042], the “Mite Mortality Rate 4 h” value (4 h after drug addition) was “+++ (a mite mortality rate greater than or equal to 90% is denoted as "+++")”. The “Mite Mortality Rate 24 h” value (24 h after drug addition) was “+++ (a mite mortality rate greater than or equal to 90% is denoted as "+++")”.

Turning to `Cc1cc(C2=NOC(c3cc(Cl)cc(Cl)c3Cl)(C(F)(F)F)C2)ccc1C(=O)NCC(=O)NC1(C(F)(F)F)CC1` (centres unmarked) [Example 020, 2-methyl-N-(2-oxo-2-((1-(trifluoromethyl)cyclopropyl)amino)ethyl)-4-(5-(2,3,5-trichlorophenyl) -5-(trifluoromethyl)-4,5-dihydroisoxazol-3-yl)benzamide], the mortality at 30 µM reads like this: under setting [1], < 50%; under setting [2], 50 to 90%.

In the case of `Cc1cc(C2=NOC(c3cc(Cl)cc(Cl)c3)(C(F)(F)F)C2)ccc1C(=O)NCC1(NCC(F)(F)F)COC1` (centres unmarked) [Example 015], under “4 h after drug addition”, the “Mite Mortality Rate 4 h” value is on record as “+ (a mite mortality rate less than 50% is denoted as "+")”. Further, the “Mite Mortality Rate 24 h” value (24 h after drug addition) is on record as “+ (a mite mortality rate less than 50% is denoted as "+")”.

As to `Cc1cc(C2=NOC(c3cc(F)cc(C(F)(F)F)c3)(C(F)(F)F)C2)ccc1C(=O)NCC(=O)NC1(C(F)(F)F)CC1` (centres unmarked) [Example 031, 4-(5-(3-fluoro-5-(trifluoromethyl)phenyl)-5-(trifluoromethyl)-4,5-dihydroisoxazol-3-yl)-2-methy 1-N-(2-oxo-2-((1-(trifluoromethyl)cyclopropyl)amino)ethyl)benzamide], the “Mite Mortality Rate 4 h” value (4 h after drug addition) is listed as “+++ (a mite mortality rate greater than or equal to 90% is denoted as "+++")”. In addition, the “Mite Mortality Rate 24 h” value (24 h after drug addition) is on record as “+++ (a mite mortality rate greater than or equal to 90% is denoted as "+++")”.

As for `Cc1cc(C2=NOC(c3cc(Cl)cc(Cl)c3)(C(F)(F)F)C2)ccc1C(=O)NCC(=O)NCC1(C(F)(F)F)CC1` (centres unmarked) [Example 018], the “Mite Mortality Rate 4 h” value (4 h after drug addition) was “+ (a mite mortality rate less than 50% is denoted as "+")”. Also, the “Mite Mortality Rate 24 h” value (24 h after drug addition) was “++ (a mite mortality rate less than 90% and greater than or equal to 50% is denoted as "++")”.

Regarding `Cc1cc(C2=NOC(c3cc(Cl)cc(Cl)c3F)(C(F)(F)F)C2)ccc1C(=O)NCC(=O)NC1(C(F)(F)F)CC1` (centres unmarked) [Example 019, 4-(5-(3,5-dichloro-2-fluorophenyl)-5-(trifluoromethyl)-4,5-dihydroisoxazol-3-yl)-2-methyl-N-(2-oxo-2-((1-(trifluoromethyl)cyclopropyl)amino)ethyl)benzamide], the mortality at 30 µM runs as follows: under setting [1], 50 to 90%; under setting [2], > 90%.

As to `Cc1cc(C2=NOC(c3cc(Cl)cc(Cl)c3)(C(F)(F)F)C2)c(F)cc1C(=O)NCC(=O)NC1CC1` (centres unmarked) [Example 041, N-(2-(cyclopropylamino)-2-oxoethyl)-4-(5-(3,5-dichlorophenyl)-5-(trifluoromethyl)-4,5-dihydroisoxazol-3-yl)-5-fluoro-2-methylbenzamide], the mortality at 30 µM under setting [1] was > 90% and the mortality at 30 µM under setting [2] is > 90%.

In the case of `Cc1cc(C2=NOC(c3cc(Cl)cc(Cl)c3)(C(F)(F)F)C2)ccc1C(=O)NCC(=O)N1CC(F)(C(F)(F)F)C1` (centres unmarked) [Example 025, 4-(5-(3,5-dichlorophenyl)-5-(trifluoromethyl)-4,5-dihydroisoxazol-3-yl)-N-(2-(3-fluoro-3-(trifluoromethyl)azetidin-1-yl)-2-oxoethyl)-2-methylbenzamide], the mortality at 30 µM is < 50% under setting [1] and < 50% under setting [2].

As to `Cc1cc(C2=NOC(c3cc(F)cc(Cl)c3)(C(F)(F)F)C2)ccc1C(=O)NCC(=O)NC1(C(F)(F)F)CC1` (centres unmarked) [Example 027, 4-(5-(3-chloro-5-fluorophenyl)-5-(trifluoromethyl)-4,5-dihydroisoxazol-3-yl)-2-methyl-N-(2-oxo-2-((1-(trifluoromethyl)cyclopropyl)amino)ethyl)benzamide], the mortality at 30 µM under setting [1] fell in the range of 50 to 90% and the mortality at 30 µM under setting [2] is > 90%.

For the molecule `Cc1cc(C2=NOC(c3cc(Cl)c(F)c(Cl)c3)(C(F)(F)F)C2)ccc1C(=O)NCC(=O)NC1(C(F)(F)F)CC1` (centres unmarked) [Example 001, 4-(5-(3,5-dichloro-4-fluorophenyl)-5-(trifluoromethyl)-4,5-dihydroisoxazol-3-yl)-2-methyl-N-(2-oxo-2-((1-(trifluoromethyl)cyclopropyl)amino)ethyl)benzamide], the mortality at 30 µM was < 50% under setting [1] and > 90% under setting [2].

For the molecule `Cc1cc(C2=NOC(c3cc(Cl)cc(Cl)c3)(C(F)(F)F)C2)ccc1C(=O)NCC(=O)N1CC(O)(C(F)(F)F)C1` (centres unmarked) [Example 014, 4-(5-(3,5-dichlorophenyl)-5-(trifluoromethyl)-4,5-dihydroisoxazol-3-yl)-N-(2-(3-hydroxy-3-(trifluoromethyl)azetidin-1-yl)-2-oxoethyl)-2-methylbenzamide], the mortality at 30 µM runs as follows: under setting [1], < 50%; under setting [2], < 50%.

As to `COc1cc(Cl)cc(C2(C(F)(F)F)CC(c3ccc(C(=O)NCC(=O)NC4(C(F)(F)F)CC4)c(C)c3)=NO2)c1` (centres unmarked) [Example 033, 4-(5-(3-chloro-5-methoxyphenyl)-5-(trifluoromethyl)-4,5-dihydroisoxazol-3-yl)-2-methyl-N-(2-oxo-2-((1-(trifluoromethyl)cyclopropyl)amino)ethyl)benzamide], the mortality at 30 µM is < 50% under setting [1] and > 90% under setting [2].

Turning to `Cc1c(C(=O)NCC(=O)NCC(F)(F)F)ccc(C2=NOC(c3cc(Cl)cc(Cl)c3)(C(F)(F)F)C2)c1F` (centres unmarked) [Example 044], the “Mite Mortality Rate 4 h” value (4 h after drug addition) is “+++ (a mite mortality rate greater than or equal to 90% is denoted as "+++")”. In addition, the “Mite Mortality Rate 24 h” value (24 h after drug addition) is listed as “+++ (a mite mortality rate greater than or equal to 90% is denoted as "+++")”.

As to `Cc1cc(C2=NOC(c3cc(Cl)c(Cl)c(Cl)c3)(C(F)(F)F)C2)ccc1C(=O)NCC(=O)N1CC(F)(CF)C1` (centres unmarked) [Example 003, N-(2-(3-fluoro-3-(fluoromethyl)azetidin-1-yl)-2-oxoethyl)-2-methyl-4-(5-(3,4,5-trichlorophenyl) -5-(trifluoromethyl)-4,5-dihydroisoxazol-3-yl)benzamide], the mortality at 30 µM under setting [1] was < 50% and the mortality at 30 µM under setting [2] is > 90%.

`Cc1cc(C2=NOC(c3cc(Cl)c(Cl)c(Cl)c3)(C(F)(F)F)C2)ccc1C(=O)NCC(=O)NC1(C(F)(F)F)CC1` (centres unmarked) [Example 004, 2-methyl-N-(2-oxo-2-((1-(trifluoromethyl)cyclopropyl)amino)ethyl)-4-(5-(3,4,5-trichlorophenyl) -5-(trifluoromethyl)-4,5-dihydroisoxazol-3-yl)benzamide]: the mortality at 30 µM is < 50% under setting [1] and > 90% under setting [2].

For `Cc1cc(C2=NOC(c3cc(Cl)cc(Cl)c3)(C(F)(F)F)C2)ccc1C(=O)NCC(=O)N1CC(F)(C#N)C1` (centres unmarked) [Example 021, N-(2-(3-cyano-3-fluoroazetidin-1-yl)-2-oxoethyl)-4-(5-(3,5-dichlorophenyl)-5-(trifluoromethyl)-4,5-dihydroisoxazol-3-yl)-2-methylbenzamide], the mortality at 30 µM was < 50% under setting [1] and < 50% under setting [2].

For the molecule `Cc1cc(C2=NOC(c3cc(Cl)cc(Cl)c3)(C(F)(F)F)C2)ccc1C(=O)NCC(=O)N1CCC1C(F)(F)F` (centres unmarked) [Example 006, 4-(5-(3,5-dichlorophenyl)-5-(trifluoromethyl)-4,5-dihydroisoxazol-3-yl)-2-methyl-N-(2-oxo-2-(2-(trifluoromethyl)azetidin-1-yl)ethyl)benzamide], the mortality at 30 µM was < 50% under setting [1] and > 90% under setting [2].

As to `Cc1cc(Cl)cc(C2(C(F)(F)F)CC(c3ccc(C(=O)NCC(=O)NC4(C(F)(F)F)CC4)c(C)c3)=NO2)c1` (centres unmarked) [Example 032, 4-(5-(3-chloro-5-methylphenyl)-5-(trifluoromethyl)-4,5-dihydroisoxazol-3-yl)-2-methyl-N-(2-oxo-2-((1-(trifluoromethyl)cyclopropyl)amino)ethyl)benzamide], the mortality at 30 µM was < 50% under setting [1] and > 90% under setting [2].

For `Cc1cc(C2=NOC(c3cc(Cl)cc(Cl)c3)(C(F)(F)F)C2)ccc1C(=O)NCC(=O)NC1(C#N)CC1` (centres unmarked) [Example 024, N-(2-((1-cyanocyclopropyl)amino)-2-oxoethyl)-4-(5-(3,5-dichlorophenyl)-5-(trifluoromethyl)-4,5-dihydroisoxazol-3-yl)-2-methylbenzamide], the mortality at 30 µM by setting is: under setting [1], < 50%; under setting [2], > 90%.

For the origin of these results see patent EP4741380A1, “ISOXAZOLINE COMPOUND AND USE” (priority 2024, dated 2025).
